Test results: ChEMBL document CHEMBL3612057, “Discovery of indolizines containing triazine moiety as new leads for the development of antitumoral agents targeting mitotic events” (2015)
Activity calls are given as the source filed them. No cut-off for these calls is given here.

How the values were obtained:
OVCAR-4 = experiment: Cytotoxicity against human OVCAR4 cells assessed as growth inhibition at 10 uM after 24 hrs by SRB assay; type: functional; settings: OVCAR-4, 24 h, read-out: GI
SF-295 = experiment: Cytotoxicity against human SF295 cells assessed as growth inhibition at 10 uM after 24 hrs by SRB assay; type: functional; settings: SF-295, 24 h, read-out: GI
SK-MEL-28 [1] = experiment: Cytotoxicity against human SK-MEL-28 cells after 48 hrs by SRB assay; type: functional; settings: SK-MEL-28, 48 h
RPMI-8226 = experiment: Cytotoxicity against human RPMI8226 cells assessed as growth inhibition at 10 uM after 24 hrs by SRB assay; type: functional; settings: RPMI-8226, 24 h, read-out: GI
U-251 [2] = experiment: Cytotoxicity against human U251 cells after 48 hrs by SRB assay; type: functional; settings: U-251, 48 h
Ovis aries = species on record: Ovis aries; experiment: Inhibition of sheep tubulin polymerization at 100 uM by fluorescence assay
CAKI-1 = experiment: Cytotoxicity against human CAKI-1 cells assessed as growth inhibition at 10 uM after 24 hrs by SRB assay; type: functional; settings: CAKI-1, 24 h, read-out: GI
ACHN = experiment: Cytotoxicity against human ACHN cells assessed as growth inhibition at 10 uM after 24 hrs by SRB assay; type: functional; settings: read-out: GI
UACC-257 = experiment: Cytotoxicity against human UACC257 cells assessed as growth inhibition at 10 uM after 24 hrs by SRB assay; type: functional; settings: UACC-257, 24 h, read-out: GI
CCRF-CEM = experiment: Cytotoxicity against human CCRF-CEM cells assessed as growth inhibition at 10 uM after 24 hrs by SRB assay; type: functional
A549 = experiment: Cytotoxicity against human A549 cells assessed as growth inhibition at 10 uM after 24 hrs by SRB assay; type: functional; settings: A549, 24 h, read-out: GI
MDA-MB-231 [3] = experiment: Cytotoxicity against human MDA-MB-231 cells after 48 hrs by SRB assay; type: functional; settings: MDA-MB-231, 48 h
MDA-MB-231 [4] = experiment: Cytotoxicity against human MDA-MB-231 cells assessed as growth inhibition at 10 uM after 24 hrs by SRB assay; type: functional; settings: MDA-MB-231, 24 h, read-out: GI
TK-10 [5] = experiment: Cytotoxicity against human TK10 cells assessed as growth inhibition at 10 uM after 24 hrs by SRB assay; type: functional; settings: TK-10, 24 h, read-out: GI
HL-60(TB) = experiment: Cytotoxicity against human HL-60(TB) cells assessed as growth inhibition at 10 uM after 24 hrs by SRB assay; type: functional; settings: HL-60, 24 h, read-out: GI
OVCAR-3 = experiment: Cytotoxicity against human OVCAR3 cells assessed as growth inhibition at 10 uM after 24 hrs by SRB assay; type: functional; settings: OVCAR-3, 24 h, read-out: GI
NCI-H226 = experiment: Cytotoxicity against human NCI-H226 cells assessed as growth inhibition at 10 uM after 24 hrs by SRB assay; type: functional; settings: NCI-H226, 24 h, read-out: GI
HOP-62 [6] = experiment: Cytotoxicity against human HOP62 cells after 48 hrs by SRB assay; type: functional; settings: HOP-62, 48 h
Malme-3M = experiment: Cytotoxicity against human MALME-3M cells assessed as growth inhibition at 10 uM after 24 hrs by SRB assay; type: functional; settings: read-out: GI
HOP-92 [7] = experiment: Cytotoxicity against human HOP92 cells assessed as growth inhibition at 10 uM after 24 hrs by SRB assay; type: functional; settings: HOP-92, 24 h, read-out: GI
786-0 [8] = experiment: Cytotoxicity against human 786-0 cells after 48 hrs by SRB assay; type: functional; settings: 786-0, 48 h
HCT-116 = experiment: Cytotoxicity against human HCT116 cells assessed as growth inhibition at 10 uM after 24 hrs by SRB assay; type: functional; settings: HCT-116, 24 h, read-out: GI
PC-3 = experiment: Cytotoxicity against human PC3 cells assessed as growth inhibition at 10 uM after 24 hrs by SRB assay; type: functional; settings: PC-3, 24 h, read-out: GI
SNB-75 [9] = experiment: Cytotoxicity against human SNB75 cells assessed as growth inhibition at 10 uM after 24 hrs by SRB assay; type: functional; settings: SNB-75, 24 h, read-out: GI
HOP-62 [10] = experiment: Cytotoxicity against human HOP62 cells assessed as growth inhibition at 10 uM after 24 hrs by SRB assay; type: functional; settings: HOP-62, 24 h, read-out: GI
SK-MEL-28 [11] = experiment: Cytotoxicity against human SK-MEL-28 cells assessed as growth inhibition at 10 uM after 24 hrs by SRB assay; type: functional; settings: SK-MEL-28, 24 h, read-out: GI
K562 = experiment: Cytotoxicity against human K562 cells assessed as growth inhibition at 10 uM after 24 hrs by SRB assay; type: functional; settings: K562, 24 h, read-out: GI
SK-OV-3 = experiment: Cytotoxicity against human SKOV3 cells assessed as growth inhibition at 10 uM after 24 hrs by SRB assay; type: functional; settings: SK-OV-3, 24 h, read-out: GI
SR = experiment: Cytotoxicity against human SR cells assessed as growth inhibition at 10 uM after 24 hrs by SRB assay; type: functional; settings: read-out: GI
MDA-MB-435 = experiment: Cytotoxicity against human MDA-MB-435 cells assessed as growth inhibition at 10 uM after 24 hrs by SRB assay; type: functional; settings: MDA-MB-435, 24 h, read-out: GI
HOP-92 [12] = experiment: Cytotoxicity against human HOP92 cells after 48 hrs by SRB assay; type: functional; settings: HOP-92, 48 h
OVCAR-8 = experiment: Cytotoxicity against human OVCAR8 cells assessed as growth inhibition at 10 uM after 24 hrs by SRB assay; type: functional; settings: OVCAR-8, 24 h, read-out: GI
NCI/ADR-RES = experiment: Cytotoxicity against human NCI/ADR-RES cells assessed as growth inhibition at 10 uM after 24 hrs by SRB assay; type: functional; settings: read-out: GI
NCI-H460 = experiment: Cytotoxicity against human NCI-H460 cells assessed as growth inhibition at 10 uM after 24 hrs by SRB assay; type: functional; settings: NCI-H460, 24 h, read-out: GI
T47D = experiment: Cytotoxicity against human T47D cells assessed as growth inhibition at 10 uM after 24 hrs by SRB assay; type: functional; settings: read-out: GI
SF-539 = experiment: Cytotoxicity against human SF539 cells assessed as growth inhibition at 10 uM after 24 hrs by SRB assay; type: functional; settings: SF-539, 24 h, read-out: GI
NCI-H522 = experiment: Cytotoxicity against human NCI-H522 cells assessed as growth inhibition at 10 uM after 24 hrs by SRB assay; type: functional; settings: NCI-H522, 24 h, read-out: GI
MCF7 = experiment: Cytotoxicity against human MCF7 cells assessed as growth inhibition at 10 uM after 24 hrs by SRB assay; type: functional; settings: MCF7, 24 h, read-out: GI
UACC-62 = experiment: Cytotoxicity against human UACC62 cells assessed as growth inhibition at 10 uM after 24 hrs by SRB assay; type: functional; settings: UACC-62, 24 h, read-out: GI
SK-MEL-5 = experiment: Cytotoxicity against human SK-MEL-5 cells assessed as growth inhibition at 10 uM after 24 hrs by SRB assay; type: functional; settings: SK-MEL-5, 24 h, read-out: GI
RXF 393 [13] = experiment: Cytotoxicity against human RXF393 cells assessed as growth inhibition at 10 uM after 24 hrs by SRB assay; type: functional; settings: RXF 393, 24 h, read-out: GI
786-0 [14] = experiment: Cytotoxicity against human 786-0 cells assessed as growth inhibition at 10 uM after 24 hrs by SRB assay; type: functional; settings: 786-0, 24 h, read-out: GI
DU-145 = experiment: Cytotoxicity against human DU145 cells after 48 hrs by SRB assay; type: functional; settings: DU-145, 48 h
SNB-75 [15] = experiment: Cytotoxicity against human SNB75 cells after 48 hrs by SRB assay; type: functional; settings: SNB-75, 48 h
U-251 [16] = experiment: Cytotoxicity against human U251 cells assessed as growth inhibition at 10 uM after 24 hrs by SRB assay; type: functional; settings: U-251, 24 h, read-out: GI
TK-10 [17] = experiment: Cytotoxicity against human TK10 cells after 48 hrs by SRB assay; type: functional; settings: TK-10, 48 h
RXF 393 [18] = experiment: Cytotoxicity against human RXF393 cells after 48 hrs by SRB assay; type: functional; settings: RXF 393, 48 h
[19] = Cytotoxicity against human Hs578T cells assessed as growth inhibition at 10 uM after 24 hrs by SRB assay; type: functional; settings: Hs-578T, read-out: GI

## COc1nc(OC)nc(-c2cc(C(=O)c3ccc(Br)cc3)n3ccccc23)n1
OVCAR-4
  inhibition of growth at 10 µM: 88%
SF-295
  inhibition of growth at 10 µM: 87%
SK-MEL-28 [1]
  GI50: 83.8 µM
RPMI-8226
  inhibition of growth at 10 µM: 26%
U-251 [2]
  GI50: 1.87 µM
Ovis aries
  inhibition: inactive
CAKI-1
  inhibition of growth at 10 µM: 56%
ACHN
  inhibition of growth at 10 µM: 70%
UACC-257
  inhibition of growth at 10 µM: 62%
CCRF-CEM
  growth inhibition (GI): inactive
A549
  inhibition of growth at 10 µM: 62%
MDA-MB-231 [3]
  GI50: 0.92 µM
MDA-MB-231 [4]
  inhibition of growth at 10 µM: 48%
TK-10 [5]
  inhibition of growth at 10 µM: 78%
HL-60(TB)
  inhibition of growth at 10 µM: 12%
OVCAR-3
  inhibition of growth at 10 µM: 44%
NCI-H226
  inhibition of growth at 10 µM: 75%
HOP-62 [6]
  GI50: 2.18 µM
Malme-3M
  inhibition of growth at 10 µM: 37%
HOP-92 [7]
  inhibition of growth at 10 µM: 59%
786-0 [8]
  GI50: 2.6 µM
HCT-116
  inhibition of growth at 10 µM: 65%
PC-3
  inhibition of growth at 10 µM: 55%
SNB-75 [9]
  inhibition of growth at 10 µM: -5%
HOP-62 [10]
  inhibition of growth at 10 µM: 96%
SK-MEL-28 [11]
  inhibition of growth at 10 µM: 63%
K562
  inhibition of growth at 10 µM: 22%
SK-OV-3
  inhibition of growth at 10 µM: -11%
SR
  inhibition of growth at 10 µM: 36%
MDA-MB-435
  inhibition of growth at 10 µM: 45%
HOP-92 [12]
  GI50: 1.08 µM
OVCAR-8
  inhibition of growth at 10 µM: 52%
NCI/ADR-RES
  inhibition of growth at 10 µM: 50%
NCI-H460
  inhibition of growth at 10 µM: 70%
T47D
  inhibition of growth at 10 µM: 52%
SF-539
  inhibition of growth at 10 µM: 76%
NCI-H522
  inhibition of growth at 10 µM: 40%
MCF7
  inhibition of growth at 10 µM: 18%
UACC-62
  inhibition of growth at 10 µM: 30%
SK-MEL-5
  inhibition of growth at 10 µM: 27%
RXF 393 [13]
  inhibition of growth at 10 µM: 75%
786-0 [14]
  inhibition of growth at 10 µM: 59%
DU-145
  GI50: 29.1 µM
SNB-75 [15]
  GI50: 0.87 µM
U-251 [16]
  inhibition of growth at 10 µM: 61%
TK-10 [17]
  GI50: 3.32 µM
RXF 393 [18]
  GI50: 4.74 µM
[19]
  inhibition of growth at 10 µM: 96%
